{"source": "patent US12565501B2", "about": "“Muscarinic acetylcholine M1 receptor antagonists” (Contineum Therapeutics, Inc., priority 2019, dated 2026)", "data": [{"target": "T1, human M1 receptor (Homo sapiens, UniProt P11229)", "T1 sequence (P11229 1-460)": "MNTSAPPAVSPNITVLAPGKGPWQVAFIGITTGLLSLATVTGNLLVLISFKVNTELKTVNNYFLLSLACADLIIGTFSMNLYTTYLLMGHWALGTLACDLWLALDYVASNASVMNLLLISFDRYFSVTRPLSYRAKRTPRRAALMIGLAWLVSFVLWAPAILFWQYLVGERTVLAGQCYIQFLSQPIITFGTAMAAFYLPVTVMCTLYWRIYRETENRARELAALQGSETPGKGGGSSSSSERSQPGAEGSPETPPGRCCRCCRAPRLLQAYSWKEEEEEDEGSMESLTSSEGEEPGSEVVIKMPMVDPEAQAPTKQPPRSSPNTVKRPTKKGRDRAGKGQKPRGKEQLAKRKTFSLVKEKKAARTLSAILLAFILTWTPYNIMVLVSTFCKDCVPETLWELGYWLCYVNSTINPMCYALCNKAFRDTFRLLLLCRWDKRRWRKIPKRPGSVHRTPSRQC", "assay": "In vitro functional assay of muscarinic acetylcholine receptor activity (aequorin calcium flux, reversal of EC80 acetylcholine response)", "format": "cell-based", "details": "CHO-K1 cells stably expressing human M1 receptor with aequorin; acetylcholine at EC80; calcium flux (luminescence); read-out: M1 IC50", "description": "CHO-K1 cells stably expressing human M1 receptor with aequorin (Perkin Elmer) were grown in F12 media (Gibco) containing 10% FBS (ATCC), 0.4 mg/mL geneticin (Sigma-Aldrich) and 0.25 mg/mL Zeocin (Invitrogen). Cells were grown as per the manufacturer's protocol. For compound testing, cells were grown to confluency and detached gently with Accutase (Sigma-Aldrich) followed by centrifugation for 5 min at 150× g. Cells were then re-suspended in assay buffer (i.e. DMEM/F-12 HEPES without phenol red (Invitrogen) with 0.1% BSA (Sigma-Aldrich)) at a density of 5×10^6 cells/ml. Under sterile conditions, 5 μM coelenterazine (Invitrogen) was added to the cells, mixed, then incubated at room temperature protected from light, with gentle agitation, for 4 h.\nPrimary compound plates were prepared in 100% DMSO in opaque 96-well plates (VWR) and serially diluted in half log increments. Secondary compound plates were prepared at 3× concentration in assay buffer. Compounds were added to white, clear bottom tissue culture treated 96-well plates (Fisher Scientific). Coelenterazine-loaded cells were then added at 5×10^5 cells/well.\nCompounds and cells were incubated at room temperature for 30 min in the dark. Acetylcholine at the EC80 concentration was added and calcium flux measured using a FlexStation 3 (Molecular Devices). Sigmoidal dose-response curves were generated by measuring luminescence over 40 sec and calculating the area under the curve. Dose response curves and IC50 values were generated using Prism (GraphPad). Compounds were tested at a final concentration range of 100 μM to […] in 0.1% DMSO.", "units": {"IC50": "nM"}, "values": [{"smiles": "COc1cc([C@H](C)NCCC(=O)N2C[C@H]3CC[C@@H](C2)N3c2ccc(C#N)cn2)ccn1", "note": "[Example 22, 6-(3-(3-(((S)-1-(2-methoxypyridin-4-yl)ethyl)amino)propanoyl)-3,8-diazabicyclo[3.2.1]octan-8-yl)nicotinonitrile]", "IC50": "1000 to 10000"}, {"smiles": "N#Cc1ccc(N2C3CCC2CN(C(=O)CNC2(c4cccc(F)c4)CC2)C3)nc1", "note": "[Example 95, 6-(3-((1-(3-fluorophenyl)cyclopropyl)glycyl)-3,8-diazabicyclo[3.2.1]octan-8-yl)nicotinonitrile]", "IC50": "10 to 100"}, {"smiles": "COc1ncccc1C(F)(F)CCC(=O)N1CC2CCC(C1)N2c1ccc(C#N)cn1", "note": "[Example 159, 6-(3-(4,4-difluoro-4-(2-methoxypyridin-3-yl)butanoyl)-3,8-diazabicyclo[3.2.1]octan-8-yl)nicotinonitrile]", "IC50": "< 10"}, {"smiles": "N#Cc1ccc(N2C3CCC2CN(C(=O)CNC2(c4ccccc4F)CC2)C3)nc1", "note": "[Example 61, 6-(3-((1-(2-fluorophenyl)cyclopropyl)glycyl)-3,8-diazabicyclo[3.2.1]octan-8-yl)nicotinonitrile]", "IC50": "100 to 1000"}, {"smiles": "N#Cc1ccc(N2C3CCC2CN(C(=O)COC2(c4cc(F)cc(Br)c4)CC2)C3)nc1", "note": "[Example 217, 6-(3-(2-(1-(3-bromo-5-fluorophenyl)cyclopropoxy)acetyl)-3,8-diazabicyclo[3.2.1]octan-8-yl)nicotinonitrile]", "IC50": "10 to 100"}, {"smiles": "N#Cc1ccc(N2C3CCC2CN(C(=O)COC2(c4cccc5nccnc45)CC2)C3)nc1", "note": "[Example 231, 6-(3-(2-(1-(quinoxalin-5-yl)cyclopropoxy)acetyl)-3,8-diazabicyclo[3.2.1]octan-8-yl)nicotinonitrile]", "IC50": "10 to 100"}, {"smiles": "CC(SCCC(=O)N1CC2CCC(C1)N2c1ccc(C#N)cn1)c1ccccc1Br", "note": "(racemic) [Example 136, 6-((3-((1-(2-bromophenyl)ethyl)thio)propanoyl)-3,8-diazabicyclo[3.2.1]octan-8-yl)nicotinonitrile]", "IC50": "100 to 1000"}, {"smiles": "N#Cc1ccc(N2C3CCC2CN(C(=O)COC2(c4cncc(OCC(F)(F)F)c4)CCC2)C3)nc1", "note": "[Example 314, 6-(3-(2-(1-(5-(2,2,2-trifluoroethoxy)pyridin-3-yl)cyclobutoxy)acetyl)-3,8-diazabicyclo[3.2.1]octan-8-yl)nicotinonitrile]", "IC50": "10 to 100"}, {"smiles": "N#Cc1ccc(N2C[C@@H]3CC[C@H]2CN3C(=O)CNC2(c3ccc(F)cc3F)CC2)nc1", "note": "[Example 83, 6-((1S,4S)-5-((1-(2,4-difluorophenyl)cyclopropyl)glycyl)-2,5-diazabicyclo[2.2.2]octan-2-yl)nicotinonitrile]", "IC50": "1000 to 10000"}, {"smiles": "N#Cc1ccc(N2C[C@@H]3C[C@H]2CN3C(=O)COC2(c3ccc(F)c(F)c3)CC2)nc1", "note": "[Example 287, 6-((1S,4S)-5-(2-(1-(3,4-difluorophenyl)cyclopropoxy)acetyl)-2,5-diazabicyclo[2.2.1]heptan-2-yl)nicotinonitrile]", "IC50": "1000 to 10000"}, {"smiles": "COc1cccc(C2(OCC(=O)N3CC4CCC(C3)N4c3ccc(C#N)cn3)CCC2)c1", "note": "[Example 237, 6-(3-(2-(1-(3-methoxyphenyl)cyclobutoxy)acetyl)-3,8-diazabicyclo[3.2.1]octan-8-yl)nicotinonitrile]", "IC50": "< 10"}, {"smiles": "N#Cc1ccc(N2C3CCC2CN(C(=O)COCC2(c4cccc5ncnn45)CC2)C3)nc1", "note": "[Example 232, 6-(3-(2-((1-([1,2,4]triazolo[1,5-a]pyridin-5-yl)cyclopropyl)methoxy)acetyl)-3,8-diazabicyclo[3.2.1]octan-8-yl)nicotinonitrile]", "IC50": "< 10"}, {"smiles": "N#Cc1ccc(N2C3CCC2CN(C(=O)COC2(c4ccc(F)c(F)c4)CCOC2)C3)nc1", "note": "(racemic) [Example 269, 6-(3-(2-((3-(3,4-difluorophenyl)tetrahydrofuran-3-yl)oxy)acetyl)-3,8-diazabicyclo [3.2.1]octan-8-yl)nicotinonitrile]", "IC50": "100 to 1000"}, {"smiles": "CC(c1ccc(F)cc1)S(=O)(=O)CC(=O)N1CC2CCC(C1)N2c1ccc(C#N)cn1", "note": "(racemic) [Example 173, 6-(3-(2-((1-(4-fluorophenyl)ethyl)sulfonyl)acetyl)-3,8-diazabicyclo[3.2.1]octan-8-yl)nicotinonitrile]", "IC50": "1000 to 10000"}, {"smiles": "N#Cc1ccc(N2[C@@H]3CC[C@H]2CN(C(=O)/C=C/C(F)(F)c2cccn4ncnc24)C3)nc1", "note": "[Example 146, 6-(3-((E)-4-([1,2,4]triazolo[1,5-a]pyridin-8-yl)-4,4-difluorobut-2-enoyl)-3,8-diazabicyclo[3.2.1]octan-8-yl)nicotinonitrile]", "IC50": "< 10"}, {"smiles": "N#Cc1ccc(N2C3CCC2CN(C(=O)CNC2(c4cccc(F)c4F)CC2)C3)nc1", "note": "[Example 70, 6-(3-((1-(2,3-difluorophenyl)cyclopropyl)glycyl)-3,8-diazabicyclo[3.2.1]octan-8-yl)nicotinonitrile]", "IC50": "100 to 1000"}, {"smiles": "N#Cc1ccc(N2C3CCC2CN(C(=O)COC(c2cccc4ncnn24)C2CC2)C3)nc1", "note": "(racemic) [Example 195, 6-(3-(2-([1,2,4]triazolo[1,5-a]pyridin-5-yl(cyclopropyl)methoxy)acetyl)-3,8-diazabicyclo[3.2.1]octan-8-yl)nicotinonitrile]", "IC50": "10 to 100"}, {"smiles": "N#Cc1ccc(N2C3CCC2CN(C(=O)COC2(c4ccc(F)c(F)c4)COC2)C3)nc1", "note": "[Example 241, (3-(2-((3-(3,4-difluorophenyl)oxetan-3-yl)oxy)acetyl)-3,8-diazabicyclo[3.2.1]octan-8-yl)nicotinonitrile]", "IC50": "1000 to 10000"}, {"smiles": "COc1ncccc1C1(OCC(=O)N2CC3CCC(C2)N3c2ccc(C#N)cn2)CCC1", "note": "[Example 254, 6-(3-(2-(1-(2-methoxypyridin-3-yl)cyclobutoxy)acetyl)-3,8-diazabicyclo[3.2.1]octan-8-yl)nicotinonitrile]", "IC50": "< 10"}, {"smiles": "CC(OCC(=O)N1CC2CCC(C1)N2c1ccc(C#N)cn1)c1cccc2ncnn12", "note": "(racemic) [Example 191, 6-(3-(2-(1-([1,2,4]triazolo[1,5-a]pyridin-5-yl)ethoxy)acetyl)-3,8-diazabicyclo[3.2.1]octan-8-yl)nicotinonitrile]", "IC50": "10 to 100"}, {"smiles": "[2H]C([2H])([2H])Oc1cc(C(F)(F)/C=C/C(=O)N2CC3CCC(C2)N3c2ccc(C#N)cn2)ccn1", "note": "[Example 149, 6-(3-((E)-4,4-difluoro-4-(2-(methoxy-d3)pyridin-4-yl)but-2-enoyl)-3,8-diazabicyclo[3.2.1]octan-8-yl)nicotinonitrile]", "IC50": "< 10"}, {"smiles": "N#Cc1ccc(N2[C@@H]3CC[C@H]2CN(C(=O)CCNC(c2cccc4ncsc24)C(F)(F)F)C3)nc1", "note": "(mixture of isomers) [Example 52, 6-(3-(3-((1-(benzo[d]thiazol-7-yl)-2,2,2-trifluoroethyl)amino)propanoyl)-3,8-diazabicyclo[3.2.1]octan-8-yl)nicotinonitrile]", "IC50": "< 10"}, {"smiles": "COc1cc(C2(OCC(=O)N3CC4CCC(C3)N4c3ccc(C#N)cn3)CC2)ccc1F", "note": "[Example 224, 6-(3-(2-(1-(4-fluoro-3-methoxyphenyl)cyclopropoxy)acetyl)-3,8-diazabicyclo[3.2.1]octan-8-yl)nicotinonitrile]", "IC50": "10 to 100"}, {"smiles": "N#Cc1ccc(N2C[C@H]3C[C@@H]2CN3C(=O)CNC2(c3ccc(F)cc3F)CC2)nc1", "note": "[Example 80, 6-((1R,4R)-5-((1-(2,4-difluorophenyl)cyclopropyl)glycyl)-2,5-diazabicyclo[2.2.1]heptan-2-yl)nicotinonitrile]", "IC50": "> 1000"}, {"smiles": "Cc1nn(C)c(C)c1C(C)OCC(=O)N1CC2CCC(C1)N2c1ccc(C#N)cn1", "note": "(racemic) [Example 198, 6-(3-(2-(1-(1,3,5-trimethyl-1H-pyrazol-4-yl)ethoxy)acetyl)-3,8-diazabicyclo[3.2.1]octan-8-yl)nicotinonitrile]", "IC50": "10 to 100"}, {"smiles": "COc1ccc2c(c1)C(C)N(CC(=O)N1CC3CCC(C1)N3c1ccc(C#N)cn1)CC2", "note": "(racemic) [Example 120, 6-(3-(2-(7-methoxy-1-methyl-3,4-dihydroisoquinolin-2(1H)-yl)acetyl)-3,8-diazabicyclo[3.2.1]octan-8-yl)nicotinonitrile]", "IC50": "1000 to 10000"}, {"smiles": "N#Cc1ccc(N2C3CCC2CN(C(=O)CCNC(CO)c2ccc(F)cc2)C3)nc1", "note": "[Example 130, 6-((3-(3-(((R)-1-(4-fluorophenyl)-2-hydroxyethyl)amino)propanoyl)-3,8-diazabicyclo[3.2.1]octan-8-yl)nicotinonitrile]", "IC50": "> 1000"}, {"smiles": "C[C@@H](OCCC(=O)N1CC2CCC(C1)N2c1ccc(C#N)cn1)c1ccc(F)c(F)c1", "note": "[Example 306, 6-(3-(3-((R)-1-(3,4-difluorophenyl)ethoxy)propanoyl)-3,8-diazabicyclo[3.2.1]octan-8-yl)nicotinonitrile]", "IC50": "10 to 100"}]}]}
